Assay results published in the NIST ThermoML archive (doi:10.1016/j.jct.2008.11.012).

Assay: xn = mol fraction of the nth substance listed
Conditions: 101 kPa, Liquid; for viscosity: Concentric cylinders viscometry; for mass density: Vibrating tube method

NCCNCCN [di(2-aminoethyl)amine] + O
Conditions	mass density [kg/m3]	viscosity [mPa·s]
293.15 K, x1 = 0.0095	1001.5	1.31
293.15 K, x1 = 0.0299	1004.2	2.076
293.15 K, x1 = 0.0565	1011.5	4.009
293.15 K, x1 = 0.0696	1014.5	5.418
293.15 K, x1 = 0.1043	1023.8	11.63
293.15 K, x1 = 0.125	1026.5	17.94
293.15 K, x1 = 0.1591	1030.7	31.07
293.15 K, x1 = 0.2076	1029.4	50.68
293.15 K, x1 = 0.2449	1027.5	59.62
293.15 K, x1 = 0.3099	1019.1	59.42
293.15 K, x1 = 0.3438	1014.1	55.52
293.15 K, x1 = 0.4112	1004.1	43.08
293.15 K, x1 = 0.4974	992.8	30.13
293.15 K, x1 = 0.6111	979	19.46
293.15 K, x1 = 0.6988	971.8	15.12
293.15 K, x1 = 0.8073	963.4	10.61
293.15 K, x1 = 0.8954	957.5	8.515
293.15 K, x1 = 1	951	7.038
303.15 K, x1 = 0.0095	998.6	1.017
303.15 K, x1 = 0.0299	1000.7	1.557
303.15 K, x1 = 0.0565	1007.1	2.841
303.15 K, x1 = 0.0696	1009.6	3.736
303.15 K, x1 = 0.1043	1017.1	7.329
303.15 K, x1 = 0.125	1019.8	10.57
303.15 K, x1 = 0.1591	1023	16.94
303.15 K, x1 = 0.2076	1021.4	25.63
303.15 K, x1 = 0.2449	1018.6	29.47
303.15 K, x1 = 0.3099	1010.2	29.55
303.15 K, x1 = 0.3438	1005.7	27.97
303.15 K, x1 = 0.4112	995	22.7
303.15 K, x1 = 0.4974	983.7	16.77
303.15 K, x1 = 0.6111	970.6	11.54
303.15 K, x1 = 0.6988	962.7	9.116
303.15 K, x1 = 0.8073	954.3	6.899
303.15 K, x1 = 0.8954	948.4	5.713
303.15 K, x1 = 1	942.3	4.804
313.15 K, x1 = 0.0095	994.9	0.8263
313.15 K, x1 = 0.0299	996.7	1.223
313.15 K, x1 = 0.0565	1002.2	2.101
313.15 K, x1 = 0.0696	1004.3	2.684
313.15 K, x1 = 0.1043	1010.7	4.877
313.15 K, x1 = 0.125	1012.9	6.69
313.15 K, x1 = 0.1591	1015.4	10.13
313.15 K, x1 = 0.2076	1013.2	14.34
313.15 K, x1 = 0.2449	1009.9	16.2
313.15 K, x1 = 0.3099	1001.5	16.32
313.15 K, x1 = 0.3438	997.1	15.61
313.15 K, x1 = 0.4112	986.4	12.99
313.15 K, x1 = 0.4974	975.1	10.17
313.15 K, x1 = 0.6111	962.1	7.375
313.15 K, x1 = 0.6988	954.2	5.944
313.15 K, x1 = 0.8073	947.3	4.741
313.15 K, x1 = 0.8954	939.8	4.017
313.15 K, x1 = 1	933.8	3.4
323.15 K, x1 = 0.0095	990.5	0.6854
323.15 K, x1 = 0.0299	991.7	0.9871
323.15 K, x1 = 0.0565	996.8	1.615
323.15 K, x1 = 0.0696	998.6	2.012
323.15 K, x1 = 0.1043	1004.2	3.423
323.15 K, x1 = 0.125	1005.7	4.514
323.15 K, x1 = 0.1591	1007.9	6.505
323.15 K, x1 = 0.2076	1004.8	8.733
323.15 K, x1 = 0.2449	1001.9	9.728
323.15 K, x1 = 0.3099	993.1	9.836
323.15 K, x1 = 0.3438	988.4	9.492
323.15 K, x1 = 0.4112	978	8.14
323.15 K, x1 = 0.4974	966.8	6.622
323.15 K, x1 = 0.6111	953.7	5.032
323.15 K, x1 = 0.6988	945.9	4.175
323.15 K, x1 = 0.8073	939.1	3.445
323.15 K, x1 = 0.8954	931.5	2.976
323.15 K, x1 = 1	925.5	2.695
333.15 K, x1 = 0.0095	985.5	0.5792
333.15 K, x1 = 0.0299	986.5	0.8166
333.15 K, x1 = 0.0565	991	1.283
333.15 K, x1 = 0.0696	992.4	1.562
333.15 K, x1 = 0.1043	997.2	2.525
333.15 K, x1 = 0.125	998.2	3.206
333.15 K, x1 = 0.1591	999.9	4.43
333.15 K, x1 = 0.2076	996.3	5.698
333.15 K, x1 = 0.2449	993.1	6.271
333.15 K, x1 = 0.3099	984.1	6.366
333.15 K, x1 = 0.3438	979.6	6.191
333.15 K, x1 = 0.4112	969.2	5.44
333.15 K, x1 = 0.4974	956.8	4.572
333.15 K, x1 = 0.6111	945.1	3.62
333.15 K, x1 = 0.6988	937.3	3.083
333.15 K, x1 = 0.8073	929.1	2.618
333.15 K, x1 = 0.8954	922.9	2.301
333.15 K, x1 = 1	917	2.109
343.15 K, x1 = 0.0095	980	0.4978
343.15 K, x1 = 0.0299	980.8	0.6873
343.15 K, x1 = 0.0565	984.7	1.044
343.15 K, x1 = 0.0696	985.8	1.244
343.15 K, x1 = 0.1043	990.1	1.919
343.15 K, x1 = 0.125	990.5	2.376
343.15 K, x1 = 0.1591	992.3	3.174
343.15 K, x1 = 0.2076	987.6	3.938
343.15 K, x1 = 0.2449	984.2	4.293
343.15 K, x1 = 0.3099	975.4	4.372
343.15 K, x1 = 0.3438	970.7	4.277
343.15 K, x1 = 0.4112	960.5	3.846
343.15 K, x1 = 0.4974	949.5	3.308
343.15 K, x1 = 0.6111	936.5	2.721
343.15 K, x1 = 0.6988	929.1	2.366
343.15 K, x1 = 0.8073	920.7	2.067
343.15 K, x1 = 0.8954	914.6	1.833
343.15 K, x1 = 1	908.9	1.703
353.15 K, x1 = 0.0095	973.8	0.4312
353.15 K, x1 = 0.0299	974.6	0.5864
353.15 K, x1 = 0.0565	978.1	0.8677
353.15 K, x1 = 0.0696	978.9	1.017
353.15 K, x1 = 0.1043	982.6	1.507
353.15 K, x1 = 0.125	982.3	1.824
353.15 K, x1 = 0.1591	982.9	2.373
353.15 K, x1 = 0.2076	978.5	2.852
353.15 K, x1 = 0.2449	975.1	3.086
353.15 K, x1 = 0.3099	966.3	3.151
353.15 K, x1 = 0.3438	961.7	3.1
353.15 K, x1 = 0.4112	951.7	2.841
353.15 K, x1 = 0.4974	940.8	2.502
353.15 K, x1 = 0.6111	927.8	2.118
353.15 K, x1 = 0.6988	920.4	1.876
353.15 K, x1 = 0.8073	912.2	1.677
353.15 K, x1 = 0.8954	906.1	1.504
353.15 K, x1 = 1	900.4	1.409
363.15 K, x1 = 0.0095	967.3	0.3693
363.15 K, x1 = 0.0299	967.7	0.4995
363.15 K, x1 = 0.0565	970.9	0.7364
363.15 K, x1 = 0.0696	971.7	0.8452
363.15 K, x1 = 0.1043	974.7	1.213
363.15 K, x1 = 0.125	974.2	1.439
363.15 K, x1 = 0.1591	974.2	1.84
363.15 K, x1 = 0.2076	969.5	2.148
363.15 K, x1 = 0.2449	966.1	2.311
363.15 K, x1 = 0.3099	957	2.365
363.15 K, x1 = 0.3438	952.6	2.337
363.15 K, x1 = 0.4112	942.7	2.176
363.15 K, x1 = 0.4974	931.9	1.955
363.15 K, x1 = 0.6111	919.1	1.696
363.15 K, x1 = 0.6988	911.8	1.526
363.15 K, x1 = 0.8073	903.6	1.387
363.15 K, x1 = 0.8954	897.5	1.26
363.15 K, x1 = 1	891.9	1.19
